Results published in patent US7368570B2, “Organometallic complexes as singlet oxygen sensitizers” (University of Southern California, priority 2003, dated 2008).

What was measured:
[1] = singlet oxygen luminescence quenching rate constants; format: physicochemical; details: for kq singlet oxygen quenching rate: Table 3, not marked MeOD, TPP in benzene or chloroform
Experimental: (§1) TPP in benzene or chloroform with OD 0.5-0.7 was used as blank/solvent solution to produce singlet oxygen. The intensity of ^1O2 luminescence signals was measured at 532 nm excitation in air-saturated solutions with a liquid nitrogen cooled germanium photodiode at 1268 nm. 0.02-0.5 mL quencher stock solution of Ir(III) complexes in […] was added to the blank solution. The decay trace of singlet oxygen was then re-measured, and the additions repeated 6-10 times. Singlet oxygen quenching rate constants by the Ir(III) complexes were obtained from the slopes of Stern Volmer plots (See FIG. 7).

[2] = quantum yield for singlet oxygen production from 1O2 luminescence at 1268 nm; format: physicochemical; details: for ΦΔ532 nm: only measured if compounds absorb at 532 nm; for ΦΔ quantum yield for singlet oxygen generation: benzene, air-saturated
Source text: The quantum yields for singlet oxygen production (ΦΔ) were obtained by measuring the intensity of the ^1O2 luminescence signal (λmax=1268 nm). Measurements were taken with 355 and 532 nm excitation (λ), in air-saturated solutions.
The quantum yields were obtained by measuring the intensity of the ^1O2 luminescence signal (λmax=1268 nm), with a liquid nitrogen cooled germanium photodiode. Measurements were taken at 355 and 532 nm excitation, in air-saturated solutions, with TPP, C60 and Perinaphthenone as references. The optical density of the photosensitizer solutions was generally kept between 0.05 and 0.4 at 355 nm excitation wavelength, and 0.03 and 0.2 at 532 nm excitation wavelength.

[3] = 355 nm, reference value; cited from earlier work
solubility = format: physicochemical
Experimental: as §1

[4] = oxidation and excited state redox potentials; format: physicochemical
[5] = phosphorescence emission properties in solution; format: physicochemical; details: room temperature, from the phosphorescence spectrum
Source text: Table 3 provides quantum yields and singlet oxygen quenching rates for Ir(III) and Pt(II) complexes of this invention. Eem(eV)=the emission maximum energy in eV at room temperature, as determined from the phosphorescence spectrum; ΦPE=the quantum efficiency for emission in solution; τPE=the emission lifetime at room temperature or 77K (in solution).

[6] = from references (footnote e), cited from earlier work; for λem: emission
[7] = 355 nm excitation, Table 3, not marked MeOD

Eem emission maximum energy [5] [eV]	Compound	kq singlet oxygen quenching rate [1]	ΦΔ355 nm [2, 7]	ΦΔ532 nm ([2]; 532 nm excitation)	λem [6] [nm]	other results
–	CC(=Nc1cc(C)cc(C)c1)C(C)=Nc1cc(C)cc(C)c1.[CH3][Pt][CH3] [(CyPh2)PtMe2]	(1.5 ± 0.1) × 10^9 M^−1s^−1	0	0	–	–
–	O=C1C=Cc2cccc3cccc1c23 [Perinaphthenone]	–	–	–	–	ΦΔ of reference for quantum yield measurements [3]: 0.95
–	c1ccc(-c2cccc[c]2[Ir]([c]2ccccc2-c2ccccn2)[c]2ccccc2-c2ccccn2)nc1 [(ppy)3Ir, Tris-(2-phenylpyridinato, N, C^2′) iridium (III)]	–	0.92 ± 0.07	–	–	solubility remark (solubility; Table 3, not marked MeOD): Not soluble; E(Sen^+/*) excited state redox potential ([4]; vs. NHE, E00 estimated using Eem): −1.45 V; E(Sen^+/0) oxidation potential ([4]; vs. ferrocene/ferrocenium): 0.32 V
–	CC1=CC(c2ccccc2)=c2ccc3c4c2[N]1[Pt]([CH3])([CH3])[N]4C(C)=CC=3c1ccccc1 [(PhenPh2)PtMe2]	(1.7 ± 0.2) × 10^9 M^−1s^−1	0	0	–	–
–	[CH3][Pt][CH3].c1ccc(-c2ccccn2)nc1 [(bpy)PtMe2]	(2.4 ± 0.1) × 10^9 M^−1s^−1	0	0	–	–
2.36	CC(=O)C=C(C)[O][Ir]([c]1ccccc1-c1nc2ccccc2o1)[c]1ccccc1-c1nc2ccccc2o1 [(bo)2Ir(acac)]	(1.8 ± 0.3) × 10^5 M^−1s^−1	0.76 ± 0.06	–	525	ΦPE quantum efficiency for emission in solution [6]: 0.25
2.23	iridium(III) bis(2-phenylbenzothiazolato-N, C^2)pyridyl chloride [BT-py]	–	0.95 ± 0.09	1.00 ± 0.09	558	singlet oxygen quenching, in words [1]: no measurable singlet oxygen quenching; kq(^1O2) singlet oxygen quenching rate ([1]; benzene): None; singlet oxygen quantum yield / production, in words [2]: high quantum yield; ΦΔ quantum yield for singlet oxygen generation ([2]; 355 nm excitation): 0.95 ± 0.09; ΦΔ quantum yield for singlet oxygen generation ([2]; 532 nm excitation): 1.00 ± 0.09
–	c12c3c4c5c1c1c6c7c2c2c8c3c3c9c4c4c%10c5c5c1c1c6c6c%11c7c2c2c7c8c3c3c8c9c4c4c9c%10c5c5c1c1c6c6c%11c2c2c7c3c3c8c4c4c9c5c1c1c6c2c3c41 [Photosensitizer C60]	–	–	–	–	ΦΔ of reference for quantum yield measurements [3]: 0.76
2.05	NCC(=O)[O][Ir]([c]1ccc2ccccc2c1-c1nc2ccccc2s1)[c]1ccc2ccccc2c1-c1nc2ccccc2s1 [BSN-G, iridium(III) bis(2-(1-naphthyl)benzothiazolato-N,C^2)glycinate]	(2.1 ± 0.5) × 10^6 M^−1s^−1	0.54 ± 0.02	0.81 ± 0.06	606	solubility remark (solubility; line marked measured in MeOD): Not soluble; ΦΔ quantum yield for singlet oxygen generation ([2]; 355 nm excitation): 0.54 ± 0.02; ΦΔ355 nm ([2]; 355 nm excitation, measured in MeOD): 0.62 ± 0.05; ΦΔ quantum yield for singlet oxygen generation ([2]; 532 nm excitation): 0.81 ± 0.06
–	[CH3][Pt]1([CH3])[N]2C=CC=c3ccc4c(c32)[N]1C=CC=4 [(Phen)PtMe2]	(2.0 ± 0.2) × 10^9 M^−1s^−1	0	0	–	–
